Where “and” joins values, the source holds several entries; their conditions need not be identical. Equal values may be shown once. Where a name gives a salt, the structure may show the parent alone.
Legend:
Type in all cases: cell-based
[1] = biological target: 3R Shaker Kv channel (M356R/A359R) (Drosophila melanogaster, UniProt P08510, A359R/DEL6-46/M356R); experiment: in vitro; conditions: for G(V) shift: mean; for pKa at 100 μM: Drosophila, functional pH dependence, read-out: Functional pKa (pH where half of the maximum G(V) shift was achieved)
Description: (§1) Experiments were made with the Shaker H4 channel incapable of fast N-type inactivation due to a Δ6-46 deletion, referred to as the wt Shaker Kv channel. The 3R Shaker Kv channel with two additional positively charged arginines (M356R/A359R) in the extracellular end of S4, was also used.
(§2) For the Shaker channels, Bluescript II KS(+) plasmid was linearized with HindIII and synthesis of cRNA were made with the T7 mMessage mMachine kit (Ambion, Austin, Tex.). Point mutations around S4, on the Shaker Kv channel, were introduced using QuickChange Site-Directed Mutagenesis Kit (Agilent Technologies, Santa Clara, Calif.) and sequencing were used for verification.
(§3) 50 nl cRNA was injected into Xenopus laevis oocytes using a Nanoject injector (Drummond Scientific, Broomall, Pa.) and the oocytes were stored at 8° C. in a modified Barth's solution (MBS) before experiments (16° C., M-channel, 1-2 days). The MBS contained (in mM): 88 NaCl, 1 KCl, 2.4 NaHCO3, 15 HEPES, 0.33 Ca(NO3)2, 0.41 CaCl2), and 0.82 MgSO4, pH was adjusted to 7.5 by NaOH and the MBS was supplemented sodium pyruvate (2.5 mM). All animal experiments were approved by the Linkoping's local Animal Care and Use Committee.
(§4) Currents were measured 1-6 days after cRNA injection using the two-electrode voltage clamp technique (GeneClamp 500B amplifier, Axon instruments). Signals were low pass filtered at 5 kHz and digitized by a Digidata 1440A converter (Molecular Devices, Sunnyvale, Calif.). The amplifiers leak compensation was used and Clampex 10.2 software (Molecular Devices) was used to obtain data and create voltage protocols. The extracellular control solution contained (in mM): 1 KCl, 88 NaCl, 0.8 MgCl2, 0.4 CaCl2) and 15 HEPES. pH were adjusted with NaOH. Electrode pipettes were made from borosilicate glass capillaries (Harvard apparatus, Kent, UK) using a two stage electrode puller (Narishige, Tokyo, Japan) and resistance was between 0.5-2.0 MO once filled with 3 M KCl solution. In the voltage protocol for the wt and 3R Shaker channel, holding potential was set to −80 mV and steady-state currents were measured at voltages between −80 and +50 mV (wt Shaker Kv channel) or +70 mV (3R Shaker Kv channel), using 5 mV increments, 100 ms. […] Physiol. 143, 173-182 (2014). For the M-channel, holding potential was set to −100 mV, test-voltages were measured between −120 and +50 mV (10 mV increments for 2 s) and tail currents were measured at −30 mV.
(§5) Control solution was perfused to the recording chamber (0.5 ml/min) and the test solution was added manually with a syringe, in a volume large enough to replace the control solution manifold. Resin acids compounds were dissolved in DMSO (100 mM) and stored at −20° C. Just prior to experiment the compound was diluted to desired concentration in control solution. Recovery was measured after continuously perfusion of control solution, maximum 5 min. All recordings were made with the perfusion off. Experiments were carried out in room temperature (20-23° C.) and chemicals were purchased from Sigma Aldrich if not stated otherwise.
(§6) Currents were leak subtracted and steady-state currents were measured 80-86 ms after onset of the test voltages (Clampfit 10.5, Molecular Devices). K conductance, GK, was calculated using,
(§7) where IK is the steady-state current, V the absolute membrane voltage and VK the reversal potential for K ions (−80 mV), and the following Boltzmann curve was used to fit the data:
(§8) GK(V)=A/(1+exp((V1/2−V)/s)^n (2)
(§9) where A is the amplitude of the curve, V1/2 the midpoint when n=1, s the slope and n an exponent for better curve fitting, set to n=4. The voltage shift was calculated at 10% of maximal conductance in control curve.
(§10) To quantify the concentration dependence or pH dependence of the GK(V) shifts the following equation was used:
(§11) ΔVG(V)=ΔVMAX/(1+c1/2/c), (3)

[2] = biological target: wt Shaker Kv channel (Shaker H4, Δ6-46) (Drosophila melanogaster, UniProt P08510, DEL6-46); experiment: Two-electrode voltage clamp, G(V) shift on wt Shaker Kv channel expressed in Xenopus laevis oocytes; conditions: mean
Description: as §1, §2, §3, §4, §5, §6, §7, §8, §9, §10, §11

[3] = biological target: T1, hKv7.2/Kv7.3 (M-channel) (Homo sapiens, UniProt O43525+O43526); experiment: Two-electrode voltage clamp, G(V) shift on human M-channel expressed in Xenopus laevis oocytes
T1 construct: expressed in transfected cells; host or cells: Xenopus laevis oocytes (cRNAs mixed 1:1)
Protocol: Experiments were also made with the human hKv7.2/Kv7.3, referred to as the M-channel. cRNAs were mixed in a 1:1 molar ratio before injection into oocytes. hKv7.2 [GenBank Acc. No. NM_004518]. hKv7.3 [GenBank Acc. No NM_004519].
as §3, §4, §5
For the M channel tail currents were measured 18 ms after onset and then plotted against the test voltage. The Boltzmann curve (Eq. 2) was used to fit data and the slope was set to shared value between control and test compound. V1/2 was used to calculate the GK(V) shift.
as §10, §11
where ΔVG(v) is the voltage shift, ΔVMAX is the amplitude of the curve, c the concentration, c1/2 the concentration at which half maximum response occur. For compounds with no pH dependence the data was fitted with a horizontal line, with the slope set to 0.

Chain of wt Shaker Kv channel (Shaker H4, Δ6-46) (P08510 other isoform, or with tags, fused parts or gaps DEL6-46): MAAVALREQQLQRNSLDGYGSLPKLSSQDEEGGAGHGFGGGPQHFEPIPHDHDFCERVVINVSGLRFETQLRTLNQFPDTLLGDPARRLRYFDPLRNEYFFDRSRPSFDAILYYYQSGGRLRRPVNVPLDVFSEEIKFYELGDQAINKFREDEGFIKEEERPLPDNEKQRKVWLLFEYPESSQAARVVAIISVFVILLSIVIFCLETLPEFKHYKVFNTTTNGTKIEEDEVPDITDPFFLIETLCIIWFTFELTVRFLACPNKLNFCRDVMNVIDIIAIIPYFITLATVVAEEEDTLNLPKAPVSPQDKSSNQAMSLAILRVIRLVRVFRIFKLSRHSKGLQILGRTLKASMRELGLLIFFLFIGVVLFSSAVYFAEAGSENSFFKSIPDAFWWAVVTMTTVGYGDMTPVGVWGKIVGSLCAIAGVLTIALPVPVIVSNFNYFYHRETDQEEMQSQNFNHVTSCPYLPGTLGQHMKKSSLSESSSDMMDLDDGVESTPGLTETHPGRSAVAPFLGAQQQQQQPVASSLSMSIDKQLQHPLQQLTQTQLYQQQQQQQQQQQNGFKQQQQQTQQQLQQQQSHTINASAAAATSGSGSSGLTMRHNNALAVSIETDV
Chain of 3R Shaker Kv channel (M356R/A359R) (P08510 other isoform, or with tags, fused parts or gaps DEL6-46/M356R/A359R): as the sequence (P08510 other isoform, or with tags, fused parts or gaps DEL6-46) above, with M315R, A318R counted along it

CC(C)C1=CC2=CC[C@@H]3[C@](C)(CCC[C@@]3(C)C(=O)O)[C@H]2CC1 [AA, abietic acid, reference compound]
G(V) shift ([1]; pH 7.4, 100 μM): −16.05 mV

CC(C)c1ccc2c(c1)CC[C@H]1[C@](C)(C(=O)NCC(=O)O)CCC[C@]21C [Wu117, ((1R,4aS,10aR)-7-isopropyl-1,4a-dimethyl-1,2,3,4,4a,9,10,10a-octahydrophenanthrene-1-carbonyl)glycine]
G(V) shift ([1]; pH 7.4, 100 μM): −7.27 mV | G(V) shift ([1]; pH 10, 100 μM): −5.27 mV | G(V) shift ([2]; pH 10, 100 μM): −0.80 mV

CC(C)c1ccc2c(c1)CC[C@H]1[C@](C)(C(=O)N[C@@H](CC(=O)O)C(=O)O)CCC[C@]21C [Wu148, ((1R,4aS,10aR)-7-isopropyl-1,4a-dimethyl-1,2,3,4,4a,9,10,10a-octahydrophenanthrene-1-carbonyl)-L-aspartic acid]
G(V) shift ([1]; pH 5.5, 100 μM): −13.30 mV | G(V) shift ([1]; pH 6.5, 100 μM): −14.23 mV | G(V) shift ([1]; pH 7.4, 100 μM): −14.47 mV | G(V) shift ([1]; pH 9, 100 μM): −11.20 mV | G(V) shift ([1]; pH 10, 100 μM): −9.53 mV | G(V) shift ([2]; pH 7.4, 100 μM): −0.73 mV

CC(C)c1ccc2c(c1)CC[C@H]1[C@](C)(C(=O)NCCCC(=O)O)CCC[C@]21C [Wu149, 4-((1R,4aS,10aR)-7-isopropyl-1,4a-dimethyl-1,2,3,4,4a,9,10,10a-octahydrophenanthrene-1-carboxamido)butanoic Acid]
G(V) shift ([1]; pH 7.4, 100 μM): −4.80 mV | G(V) shift (example recording, normalized G(V) curves) ([1]; pH 7.4, 100 μM, single recording of FIG. 2C): −5.3 mV | G(V) shift ([1]; pH 10, 100 μM): −5.17 mV | G(V) shift ([2]; pH 10, 100 μM): −0.57 mV

CC(C)c1ccc2c(c1)CC[C@H]1[C@](C)(C(=O)NCCCS(=O)(=O)O)CCC[C@]21C [Wu150, 3-((1R,4aS,10aR)-7-isopropyl-1,4a-dimethyl-1,2,3,4,4a,9,10,10a-octahydrophenanthrene-1-carboxamido)propane-1-sulfonic acid]
G(V) shift ([1]; pH 7.4, 100 μM): −9.98 mV | G(V) shift ([2]; pH 7.4, 100 μM): −4.18 mV

CC(C)c1ccc2c(c1)CC[C@H]1[C@](C)(C(=O)NCCCC(=O)NCCCC(=O)O)CCC[C@]21C [Wu151, 4-(4-((1R,4aS,10aR)-7-isopropyl-1,4a-dimethyl-1,2,3,4,4a,9,10,10a-octahydrophenanthrene-1-carboxamido)butanamido)butanoic Acid]
G(V) shift ([1]; pH 7.4, 100 μM): −2.53 mV

CC(C)c1ccc2c(c1)CC[C@H]1[C@](C)(C(=O)NCCC(=O)O)CCC[C@]21C [Wu152, 3-((1R,4aS,10aR)-7-isopropyl-1,4a-dimethyl-1,2,3,4,4a,9,10,10a-octahydrophenanthrene-1-carboxamido)propanoic Acid]
G(V) shift ([1]; pH 7.4, 100 μM): −6.2 mV | G(V) shift ([1]; pH 10, 100 μM): −5.20 mV | G(V) shift ([2]; pH 10, 100 μM): −1.17 mV

CC(C)c1ccc2c(c1)CC[C@H]1[C@](C)(C(=O)NCCC(=O)NCCC(=O)O)CCC[C@]21C [Wu153, 3-(3-((1R,4aS,10aR)-7-isopropyl-1,4a-dimethyl-1,2,3,4,4a,9,10,10a-octahydrophenanthrene-1-carboxamido)propanamido)propanoic Acid]
G(V) shift ([1]; pH 7.4, 100 μM): −2.54 mV

CC(C)C1=CC2=CC[C@H]3[C@](C)(C(=O)NCCCC(=O)O)CCC[C@]3(C)C2CC1 (stereo partly drawn) [Wu157, 4-((1R,4aR,4bR,10aR)-7-isopropyl-1,4a-dimethyl-1,2,3,4,4a,4b,10,10a-decahydrophenanthrene-1-carboxamido)butanoic Acid]
G(V) shift ([1]; pH 7.4, 100 μM): −7.10 mV

CC(C)c1ccc2c(c1)CC[C@H]1[C@](C)(C(=O)NCP(=O)(O)O)CCC[C@]21C [Wu158, (((1R,4aS,10aR)-7-isopropyl-1,4a-dimethyl-1,2,3,4,4a,9,10,10a-octahydrophenanthrene-1-carboxamido)methyl)phosphonic Acid]
G(V) shift ([1]; pH 7.4, 100 μM): −4.94 mV

CC(C)c1ccc2c(c1)CC[C@H]1[C@](C)(COP(=O)(O)O)CCC[C@]21C [Wu162, ((1R,4aS,10aR)-7-isopropyl-1,4a-dimethyl-1,2,3,4,4a,9,10,10a-octahydrophenanthren-1-yl)methyl Dihydrogen Phosphate]
G(V) shift ([1]; pH 6.5, 100 μM): −10.03 mV | G(V) shift ([1]; pH 7.4, 100 μM): −11.80 mV | G(V) shift ([1]; pH 9, 100 μM): −11.55 mV | G(V) shift ([1]; pH 10, 100 μM): −8.93 mV | G(V) shift ([2]; pH 7.4, 100 μM): −1.18 mV

CC(C)c1ccc2c(c1)CCC1[C@](C)(/C=C/C(=O)O)CCC[C@]21C (stereo partly drawn) [Wu176, (E)-3-((1S,4aS)-7-isopropyl-1,4a-dimethyl-1,2,3,4,4a,9,10,10a-octahydrophenanthren-1-yl)acrylic Acid]
pKa at 100 μM [1]: 6.8 | G(V) shift ([1]; pH 5.5, 100 μM): 2.80 mV | G(V) shift ([1]; pH 7.4, 100 μM): −15.16 mV | G(V) shift ([1]; pH 10, 100 μM): −17.10 mV

CC(C)c1ccc2c(c1)CCC1[C@](C)(CC(=O)O)CCC[C@]21C (stereo partly drawn) [Wu180, 2-((1S,4aS)-7-isopropyl-1,4a-dimethyl-1,2,3,4,4a,9,10,10a-octahydrophenanthren-1-yl)acetic acid]
pKa at 100 μM [1]: 7.3 | G(V) shift ([1]; pH 5.5, 100 μM): 1.575 mV | G(V) shift ([1]; pH 7.4, 100 μM): −11.04 mV | G(V) shift ([1]; pH 10, 100 μM): −19.18 mV | G(V) shift ([2]; pH 10, 100 μM): −2.40 mV

C[C@@]1(COS(=O)(=O)O)CCC[C@]2(C)c3cc(Cl)c(Cl)c(Cl)c3CC[C@@H]12 [Wu181, ((1R,4aS,10aR)-6,7,8-trichloro-1,4a-dimethyl-2,3,4,9,10,10a-hexahydrophenanthrene-1-yl)methyl hydrogen sulfate]
Increase of affinity compared to DHAA (factor) ([1]; pH 7.4): 16 | Increase of affinity compared to Wu161 and Wu50 (factor) ([1]; pH 7.4): 6 | Increase of amplitude/efficacy compared to DHAA (factor) ([1]; pH 7.4): 2.0 | Increased G(V) shift at low concentrations compared to DHAA (factor) ([1]; pH 7.4): 32 | G(V) shift ([1]; pH 7.4, 3 μM): −21.3±2.9 mV | G(V) shift ([1]; pH 7.4, 10 μM): −31.90 mV | ΔVMAX (maximum shift) ([1]; pH 7.4, concentration-response of G(V) shift): −53.6 mV and −53.6±4.0 mV | EC50 ([1]; pH 7.4, concentration-response of G(V) shift, read-out: c1/2 (half-maximal concentration)): 6.1 µM | ΔVMAX (maximum shift) ([3]; concentration-response of G(V) shift): −42.1 mV and −42.1±5.7 mV | EC50 ([3]; concentration-response of G(V) shift, read-out: c1/2 (half-maximal concentration)): 12.4 µM | G(V) shift ([3]; pH 7.4, 10 μM, mean): −18.9±2.4 mV and −18.90 mV
